{
  "source": "patent US11649255B2",
  "about": "“Indazoles as hematopoietic progenitor kinase 1 (HPK1) inhibitors and methods using same” (1st Biotherapeutics, Inc., priority 2020, dated 2023)",
  "target": "recombinant human HPK1 (Homo sapiens (Human), UniProt Q92918)",
  "sequence (Q92918 whole entry)": "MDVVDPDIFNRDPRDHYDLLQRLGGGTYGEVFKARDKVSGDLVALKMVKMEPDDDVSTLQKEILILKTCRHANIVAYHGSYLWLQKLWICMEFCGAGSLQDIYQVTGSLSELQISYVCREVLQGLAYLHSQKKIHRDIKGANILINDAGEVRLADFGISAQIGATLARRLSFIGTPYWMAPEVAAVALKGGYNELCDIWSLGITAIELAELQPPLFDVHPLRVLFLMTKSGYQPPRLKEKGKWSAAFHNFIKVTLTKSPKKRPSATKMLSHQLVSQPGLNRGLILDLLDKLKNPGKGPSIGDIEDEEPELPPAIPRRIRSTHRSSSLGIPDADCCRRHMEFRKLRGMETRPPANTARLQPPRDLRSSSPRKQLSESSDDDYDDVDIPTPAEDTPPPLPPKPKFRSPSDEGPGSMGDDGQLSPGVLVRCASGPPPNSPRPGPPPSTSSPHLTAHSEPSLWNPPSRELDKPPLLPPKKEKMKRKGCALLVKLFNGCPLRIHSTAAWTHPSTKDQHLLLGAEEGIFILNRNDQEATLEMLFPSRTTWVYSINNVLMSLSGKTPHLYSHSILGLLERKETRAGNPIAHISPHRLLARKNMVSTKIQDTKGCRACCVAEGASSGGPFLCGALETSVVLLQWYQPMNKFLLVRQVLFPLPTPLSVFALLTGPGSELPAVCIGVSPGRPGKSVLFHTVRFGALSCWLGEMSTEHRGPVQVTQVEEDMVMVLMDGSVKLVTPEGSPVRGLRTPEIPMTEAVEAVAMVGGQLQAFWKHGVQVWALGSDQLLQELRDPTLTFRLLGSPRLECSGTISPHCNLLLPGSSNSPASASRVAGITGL",
  "experiment": "HPK1 kinase assay (ADP-Glo)",
  "assay_type": "biochemical",
  "conditions": "25 μM ATP, MBP substrate",
  "procedure,_shortened": "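Activity was read as ADP formed, detected by ADP-Glo luminescence after the reaction of 5 ng recombinant human HPK1 with MBP and ATP (stocks 0.5 μg/μl and 25 μM) for 40 min at 30 °C. Buffer was Tris pH 7.5 with MgCl2, BSA and DTT, with compound in 0.5% DMSO. IC50 came from inhibition curves.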",
  "data": [
    {"smiles": "CNC(=O)OCCN(C)c1c(F)c(C)c(-c2ccc3nc(NC(=O)[C@@H]4C[C@@H]4F)sc3n2)c2cn[nH]c12", "note": "[Example 202, 2-((6-fluoro-4-(2-((1S,2S)-2-fluorocyclopropane-1-carboxamido)thiazolo[5,4-b]pyridin-5-yl)-5-methyl-1H-indazol-7-yl)(methyl)amino)ethyl methylcarbamate]", "values": [
      {"measurement": "IC50", "result": "< 100", "unit": "nM"}
    ]},
    {"smiles": "Cc1c(F)c(N(C)CCO)c2[nH]ncc2c1-c1ccc2nc(NC(=O)[C@@H]3C[C@@H]3F)sc2n1", "note": "[Example 204, (1S,2S)-2-fluoro-N-(5-(6-fluoro-7-((2-hydroxyethyl)(methyl)amino)-5-methyl-1H-indazol-4-yl)thiazolo[5,4-b]pyridin-2-yl)cyclopropane-1-carboxamide]", "values": [
      {"measurement": "IC50", "result": "< 100", "unit": "nM"}
    ]},
    {"smiles": "Cc1c(F)c(C(F)(F)F)c2[nH]ncc2c1-c1ccc2nc(NC(=O)[C@@H]3C[C@@H]3F)sc2n1", "note": "[Example 205, (1S,2S)-2-fluoro-N-(5-(6-fluoro-5-methyl-7-(trifluoromethyl)-1H-indazol-4-yl)thiazolo[5,4-b]pyridin-2-yl)cyclopropane-1-carboxamide]", "values": [
      {"measurement": "IC50", "result": "< 100", "unit": "nM"}
    ]},
    {"smiles": "CNC(=O)c1c(F)c(C)c(-c2ccc3nc(NC(=O)[C@@H]4C[C@@H]4F)sc3n2)c2cn[nH]c12", "note": "[Example 206, 6-fluoro-4-(2-((1S,2S)-2-fluorocyclopropane-1-carboxamido)thiazolo[5,4-b]pyridin-5-yl)-N,5-dimethyl-1H-indazole-7-carboxamide]", "values": [
      {"measurement": "IC50", "result": "101 to 500", "unit": "nM"}
    ]},
    {"smiles": "CN(C)c1c(F)c(C(F)(F)F)c(-c2ccc3nc(NC(=O)[C@@H]4C[C@@H]4F)sc3n2)c2cn[nH]c12", "note": "[Example 207, (1S,2S)-N-(5-(7-(dimethylamino)-6-fluoro-5-(trifluoromethyl)-1H-indazol-4-yl)thiazolo[5,4-b]pyridin-2-yl)-2-fluorocyclopropane-1-carboxamide]", "values": [
      {"measurement": "IC50", "result": "< 100", "unit": "nM"}
    ]},
    {"smiles": "O=C(Nc1nc2ccc(-c3c(Cl)c(F)c(F)c4[nH]ncc34)nc2s1)[C@@H]1C[C@@H]1F", "note": "[Example 208, (1S,2S)-N-(5-(5-chloro-6,7-difluoro-1H-indazol-4-yl)thiazolo[5,4-b]pyridin-2-yl)-2-fluorocyclopropane-1-carboxamide 2,2,2-trifluoroacetate]", "values": [
      {"measurement": "IC50", "result": "< 100", "unit": "nM"}
    ]},
    {"smiles": "O=C(Nc1nc2ccc(-c3c(Cl)c(F)c(C(F)F)c4[nH]ncc34)nc2s1)[C@@H]1C[C@@H]1F", "note": "[Example 209, (1S,2S)-N-(5-(5-chloro-7-(difluoromethyl)-6-fluoro-1H-indazol-4-yl)thiazolo[5,4-b]pyridin-2-yl)-2-fluorocyclopropane-1-carboxamide]", "values": [
      {"measurement": "IC50", "result": "< 100", "unit": "nM"}
    ]},
    {"smiles": "CCc1c(F)c(C(F)(F)F)c2[nH]ncc2c1-c1ccc2nc(NC(=O)[C@@H]3C[C@@H]3F)sc2n1", "note": "[Example 210, (1S,2S)-N-(5-(5-ethyl-6-fluoro-7-(trifluoromethyl)-1H-indazol-4-yl)thiazolo[5,4-b]pyridin-2-yl)-2-fluorocyclopropane-1-carboxamide]", "values": [
      {"measurement": "IC50", "result": "< 100", "unit": "nM"}
    ]},
    {"smiles": "Cc1c(F)c(Cl)c(-c2ccc3nc(NC(=O)[C@@H]4C[C@@H]4F)sc3n2)c2cn[nH]c12", "note": "[Example 211, (1S,2S)-N-(5-(5-chloro-6-fluoro-7-methyl-1H-indazol-4-yl)thiazolo[5,4-b]pyridin-2-yl)-2-fluorocyclopropane-1-carboxamide]", "values": [
      {"measurement": "IC50", "result": "< 100", "unit": "nM"}
    ]},
    {"smiles": "CSc1ccc(-c2ccc3nc(NC(=O)[C@@H]4C[C@@H]4F)sc3n2)c2cn[nH]c12", "note": "[Example 212, (1S,2S)-2-fluoro-N-(5-(7-(methylthio)-1H-indazol-4-yl)thiazolo[5,4-b]pyridin-2-yl)cyclopropane-1-carboxamide]", "values": [
      {"measurement": "IC50", "result": "> 1000", "unit": "nM"}
    ]},
    {"smiles": "Cc1c(F)c(OC(F)(F)F)c2[nH]ncc2c1-c1ccc2nc(NC(=O)[C@@H]3C[C@@H]3F)sc2n1", "note": "[Example 213, (1S,2S)-2-fluoro-N-(5-(6-fluoro-5-methyl-7-(trifluoromethoxy)-1H-indazol-4-yl)thiazolo[5,4-b]pyridin-2-yl)cyclopropane-1-carboxamide]", "values": [
      {"measurement": "IC50", "result": "> 1000", "unit": "nM"}
    ]},
    {"smiles": "CN(C)c1c(F)cc(-c2ccc3nc(NC(=O)[C@@H]4C[C@@H]4F)sc3n2)c2cn[nH]c12", "note": "[Example 214, (1S,2S)-N-(5-(7-(dimethylamino)-6-fluoro-1H-indazol-4-yl)thiazolo[5,4-b]pyridin-2-yl)-2-fluorocyclopropane-1-carboxamide]", "values": [
      {"measurement": "IC50", "result": "> 1000", "unit": "nM"}
    ]},
    {"smiles": "O=C(Nc1nc2ccc(-c3cc(F)c(OC(F)(F)F)c4[nH]ncc34)nc2s1)[C@@H]1C[C@@H]1F", "note": "[Example 215, (1S,2S)-2-fluoro-N-(5-(6-fluoro-7-(trifluoromethoxy)-1H-indazol-4-yl)thiazolo[5,4-b]pyridin-2-yl)cyclopropane-1-carboxamide]", "values": [
      {"measurement": "IC50", "result": "> 1000", "unit": "nM"}
    ]},
    {"smiles": "CN(C)c1ccc(-c2ccc3nc(NC(=O)[C@@H]4C[C@@H]4F)sc3n2)c2cn[nH]c12", "note": "[Example 216, (1S,2S)-N-(5-(7-(dimethylamino)-1H-indazol-4-yl)thiazolo[5,4-b]pyridin-2-yl)-2-fluorocyclopropane-1-carboxamide]", "values": [
      {"measurement": "IC50", "result": "> 1000", "unit": "nM"}
    ]},
    {"smiles": "Cc1c(F)c(C(F)F)c2[nH]ncc2c1-c1ccc2nc(NC(=O)[C@@H]3C[C@@H]3F)sc2n1", "note": "[Example 217, (1S,2S)-N-(5-(7-(difluoromethyl)-6-fluoro-5-methyl-1H-indazol-4-yl)thiazolo[5,4-b]pyridin-2-yl)-2-fluorocyclopropane-1-carboxamide]", "values": [
      {"measurement": "IC50", "result": "< 100", "unit": "nM"}
    ]},
    {"smiles": "CCN(C)c1c(F)c(SC)c(-c2ccc3nc(NC(=O)[C@@H]4C[C@@H]4F)sc3n2)c2cn[nH]c12", "note": "[Example 218, (1S,2S)-N-(5-(7-(ethyl(methyl)amino)-6-fluoro-5-(methylthio)-1H-indazol-4-yl)thiazolo[5,4-b]pyridin-2-yl)-2-fluorocyclopropane-1-carboxamide]", "values": [
      {"measurement": "IC50", "result": "< 100", "unit": "nM"}
    ]},
    {"smiles": "CSc1c(F)cc2[nH]ncc2c1-c1cc2sc(NC(=O)[C@@H]3C[C@@H]3F)nc2cn1", "note": "[Example 219, (1S,2S)-2-fluoro-N-(6-(6-fluoro-5-(methylthio)-1H-indazol-4-yl)thiazolo[4,5-c]pyridin-2-yl)cyclopropane-1-carboxamide]", "values": [
      {"measurement": "IC50", "result": "101 to 500", "unit": "nM"}
    ]},
    {"smiles": "C[S+]([O-])c1c(F)cc2[nH]ncc2c1-c1cc2sc(NC(=O)[C@@H]3C[C@@H]3F)nc2cn1", "note": "(stereo partly drawn) [Example 220, (1S,2S)-2-fluoro-N-(6-(6-fluoro-5-(methylsulfinyl)-1H-indazol-4-yl)thiazolo[4,5-c]pyridin-2-yl)cyclopropane-1-carboxamide]", "values": [
      {"measurement": "IC50", "result": "> 1000", "unit": "nM"}
    ]},
    {"smiles": "Cc1ccc2[nH]ncc2c1-c1ccc2nc(NC(=O)[C@@H]3C[C@@H]3F)cn2c1", "note": "[Example 221, (1S,2S)-2-fluoro-N-(6-(5-methyl-1H-indazol-4-yl)imidazo[1,2-a]pyridin-2-yl)cyclopropane-1-carboxamide]", "values": [
      {"measurement": "IC50", "result": "101 to 500", "unit": "nM"}
    ]},
    {"smiles": "O=C(Nc1cn2cc(-c3cccc4[nH]ncc34)ccc2n1)[C@@H]1C[C@@H]1F", "note": "[Example 222, (1S,2S)-N-(6-(1H-indazol-4-yl)imidazo[1,2-a]pyridin-2-yl)-2-fluorocyclopropane-1-carboxamide]", "values": [
      {"measurement": "IC50", "result": "501 to 1000", "unit": "nM"}
    ]},
    {"smiles": "O=C(Nc1cn2cc(-c3c(Cl)ccc4[nH]ncc34)ccc2n1)C1CC1", "note": "[Example 223, N-(6-(5-chloro-1H-indazol-4-yl)imidazo[1,2-a]pyridin-2-yl)cyclopropanecarboxamide]", "values": [
      {"measurement": "IC50", "result": "< 100", "unit": "nM"}
    ]},
    {"smiles": "COc1ccc2[nH]ncc2c1-c1ccc2nc(NC(=O)C3CC3)cn2c1", "note": "[Example 224, N-(6-(5-methoxy-1H-indazol-4-yl)imidazo[1,2-a]pyridin-2-yl)cyclopropanecarboxamide]", "values": [
      {"measurement": "IC50", "result": "101 to 500", "unit": "nM"}
    ]},
    {"smiles": "Nc1ccc2[nH]ncc2c1-c1ccc2nc(NC(=O)C3CC3)cn2c1", "note": "[Example 225, N-(6-(5-amino-1H-indazol-4-yl)imidazo[1,2-a]pyridin-2-yl)cyclopropanecarboxamide]", "values": [
      {"measurement": "IC50", "result": "> 1000", "unit": "nM"}
    ]},
    {"smiles": "O=C(Nc1cn2cc(-c3c(C(F)(F)F)ccc4[nH]ncc34)ccc2n1)C1CC1", "note": "[Example 226, N-(6-(5-(trifluoromethyl)-1H-indazol-4-yl)imidazo[1,2-a]pyridin-2-yl)cyclopropanecarboxamide]", "values": [
      {"measurement": "IC50", "result": "< 100", "unit": "nM"}
    ]},
    {"smiles": "Nc1c(F)cc2[nH]ncc2c1-c1ccc2nc(NC(=O)C3CC3)cn2c1", "note": "[Example 227, N-(6-(5-amino-6-fluoro-1H-indazol-4-yl)imidazo[1,2-a]pyridin-2-yl)cyclopropanecarboxamide]", "values": [
      {"measurement": "IC50", "result": "> 1000", "unit": "nM"}
    ]},
    {"smiles": "O=C(Nc1cn2cc(-c3c(Br)ccc4[nH]ncc34)ccc2n1)C1CC1", "note": "[Example 228, N-(6-(5-bromo-1H-indazol-4-yl)imidazo[1,2-a]pyridin-2-yl)cyclopropanecarboxamide]", "values": [
      {"measurement": "IC50", "result": "> 1000", "unit": "nM"}
    ]},
    {"smiles": "CNc1ccc2[nH]ncc2c1-c1ccc2nc(NC(=O)C3CC3)cn2c1", "note": "[Example 229, N-(6-(5-(methylamino)-1H-indazol-4-yl)imidazo[1,2-a]pyridin-2-yl)cyclopropanecarboxamide]", "values": [
      {"measurement": "IC50", "result": "< 100", "unit": "nM"}
    ]},
    {"smiles": "CN(C)c1ccc2[nH]ncc2c1-c1ccc2nc(NC(=O)C3CC3)cn2c1", "note": "[Example 230, N-(6-(5-(dimethylamino)-1H-indazol-4-yl)imidazo[1,2-a]pyridin-2-yl)cyclopropanecarboxamide]", "values": [
      {"measurement": "IC50", "result": "> 1000", "unit": "nM"}
    ]},
    {"smiles": "O=C(Nc1cn2cc(-c3c(Br)c(F)cc4[nH]ncc34)ccc2n1)C1CC1", "note": "[Example 231, N-(6-(5-bromo-6-fluoro-1H-indazol-4-yl)imidazo[1,2-a]pyridin-2-yl)cyclopropanecarboxamide]", "values": [
      {"measurement": "IC50", "result": "> 1000", "unit": "nM"}
    ]},
    {"smiles": "N#Cc1ccc2[nH]ncc2c1-c1ccc2nc(NC(=O)C3CC3)cn2c1", "note": "[Example 232, N-(6-(5-cyano-1H-indazol-4-yl)imidazo[1,2-a]pyridin-2-yl)cyclopropanecarboxamide]", "values": [
      {"measurement": "IC50", "result": "< 100", "unit": "nM"}
    ]},
    {"smiles": "O=C(Nc1cn2cc(-c3c(CO)ccc4[nH]ncc34)ccc2n1)C1CC1", "note": "[Example 233, N-(6-(5-(hydroxymethyl)-1H-indazol-4-yl)imidazo[1,2-a]pyridin-2-yl)cyclopropanecarboxamide]", "values": [
      {"measurement": "IC50", "result": "501 to 1000", "unit": "nM"}
    ]},
    {"smiles": "CCc1ccc2[nH]ncc2c1-c1ccc2nc(NC(=O)C3CC3)cn2c1", "note": "[Example 234, N-(6-(5-ethyl-1H-indazol-4-yl)imidazo[1,2-a]pyridin-2-yl)cyclopropanecarboxamide]", "values": [
      {"measurement": "IC50", "result": "> 1000", "unit": "nM"}
    ]},
    {"smiles": "C=Cc1c(F)cc2[nH]ncc2c1-c1ccc2nc(NC(=O)C3CC3)cn2c1", "note": "[Example 235, N-(6-(6-fluoro-5-vinyl-1H-indazol-4-yl)imidazo[1,2-a]pyridin-2-yl)cyclopropanecarboxamide]", "values": [
      {"measurement": "IC50", "result": "< 100", "unit": "nM"}
    ]}
  ]
}
